Laboratory results as given in patent publication US20210134398A1, “Combinatorial Chemistry Computational System and Enhanced Selection Method” (Southern Methodist University, priority 2019, published 2021).
Entries after “also recorded” stand apart in the source; their conditions may differ.

How the values were obtained:
[1] = target: T1, P-gp-catalyzed transport of calcein AM in DU145TXR cells (Homo sapiens, UniProt P08183); assay: Calcein AM accumulation assay; format: cell-based; conditions: after 6-hour pre-incubation, compared to parental 29
T1 construct: DU145 human prostate cancer cells^52 as well as the multidrug resistant sub-line, DU145TXR; endogenous in cells; host or cells: DU145TXR (paclitaxel-selected sub-line of human DU145 prostate cancer cells)
Protocol: Accumulation and cellular retention of calcein AM in P-gp overexpressing prostate cancer cells upon incubation with Group 1 SMU-29 variants. Calcein AM accumulation assays have been used by us previously to evaluate P-gp-substrate accumulation in real time in the presence or absence of P-gp inhibitors^28. For these assays, P-gp overexpressing DU145TXR cells were incubated with the respective inhibitors in the presence of the P-gp substrate, calcein AM. Inhibition of P-gp leads to cellular accumulation of calcein AM and to cleavage of its acetoxymethyl ester groups, resulting in the generation of the highly fluorescent compound, calcein. The anionic calcein is not a substrate of P-gp and remains in the cells. In these assays, the relative fluorescence of cellular calcein was measured over time and the results of these assays are shown in FIG. 13A. […]
Calcein AM assay. To assess inhibition of P-gp-catalyzed transport of the P-gp pump substrate, calcein AM, DU145TXR cells were seeded in 96 wells plates and allowed to grow in complete medium until confluency was reached. Medium was removed, and cells were treated […] P-gp inhibitory compounds and 1 μg/mL calcein AM (Life Technologies, OR) and diluted into phenol red free RPMI 1640 media. To study the effect of pre-incubation of compounds, cells were treated with just P-gp inhibitory compounds and incubated at 37° C. for six hours before adding calcein AM. Fluorescence excitation at 485 nm with a 20 nm gate and at emission at 535 nm with a 20 nm gate was measured using a BioTek Cytation 5 imaging multi-mode reader (Bio-Tek, Winooski, Vt.) over 60 minutes in 20 minute intervals. DMSO was used as vehicle. Results were plotted as the mean with standard deviation (SD) of six replicates per concentration and are representative of at least two independent experiments.

[2] = target: T2, Cysteineless Mouse MDR3 P-glycoprotein (Mus musculus, UniProt P21447, C1070A/C1121A/C1223A/C133A/C427A/C638A/C669A/C713A/C952A); assay: ATPase activity assay (basal and verapamil-stimulated), purified P-gp in mixed micelles; format: biochemical; conditions: for Effect on stimulated ATPase / Stimulated ATPase: in the presence of verapamil; for Stimulated ATPase / Basal ATPase: ± standard deviation; for Effect on basal ATPase / Basal ATPase: no added transport substrate
T2 construct: made in house; host or cells: Pichia pastoris
Protocol: Evaluation of mode of inhibition of P-glycoprotein by Group 1 and Group 2 variants of compound 29. To assess the mode of inhibition of P-gp by the novel variants of P-gp inhibitor 29, ATP hydrolysis by P-gp was evaluated in the presence or absence of the variants. […] Murine P-gp (MDR3) expressed in Pichia pastoris that had all naturally occurring cysteines replaced with alanine, was used^45, 46. It is widely assumed that the ATP hydrolytic rate of P-gp is stimulated in the presence of transport substrates when compared to ATP hydrolysis in the absence of transport substrates. Assays comparing these rates can therefore be useful not only in identifying inhibitors of P-gp catalyzed ATP hydrolysis, but also to potentially infer whether a compound might be a transport substrate if basal ATPase rates are stimulated by the addition of a compound.
(§1) P-glycoprotein Purification. Cysteine-less MDR3 and the human normal MDR1 P-glycoprotein was recombinantly expressed in the yeast Pichia pastoris essentially as in^45, 46 and used for assaying ATP hydrolysis and ATP binding to the protein in the presence of the 29-variants. Purification of the protein was performed as described^49 with small modifications resulting in highly enriched P-gp in mixed micelles containing dodecyl maltoside (DDM) and lysophosphatidyl choline^26.
(§2) ATPase Activity Assays. ATP hydrolysis activity was measured using a coupled enzyme assay^72 as modified in reference^26.

[3] = target: T3, Normal Human MDR1 P-glycoprotein (Homo sapiens, UniProt P08183); assay: ATPase activity assay (basal and verapamil-stimulated), P-gp in nanodiscs; format: biochemical; conditions: for Effect on stimulated ATPase / Stimulated ATPase: in the presence of verapamil; for Stimulated ATPase / Basal ATPase: ± standard deviation; for Effect on basal ATPase / Basal ATPase: no added transport substrate
T3 construct: made in house; host or cells: Pichia pastoris (P-gp); E. coli BL21 (DE3) (MSP1E3D1)
From the text: To assess whether the observed discrepancies of compounds stimulating basal P-gp ATPase activity but not being transport substrates of the human pump in the cell culture assessments were due to the fact that these biochemical assays used a cysteineless variant of the mouse MDR3 P-glycoprotein, the experiments were repeated using normal human MDR1 P-gp. In order to stabilize the human protein for the activity assays, the protein was assembled into membrane nanodiscs as described herein.
as §1
Nanodisc assembly. Human P-gp in mixed detergent micelles obtained during protein purification, was reconstituted into nanodiscsas described in references^73, 74 with small modifications. […] The detergent was removed with Bio-Beads™ SM-2 Adsorbent Media (BioRad). Ni-NTA Agarose (Qiagen) chromatography was used to purify P-gp reconstituted nanodiscs using 6 bed volumes of start buffer (20% (v/v) glycerol, 50 mM Tris-CL pH 7.5 at 4° C., 50 mM NaCl), and 5 bed volumes of elution buffer (20% (v/v) glycerol, 50 mM Tris-Cl pH 7.5 at 4° C., 50 mM NaCl, 300 mM imidazole).
as §2

T2 sequence (P21447 whole entry C133A/C427A/C638A/C669A/C713A/C952A/C1070A/C1121A/C1223A): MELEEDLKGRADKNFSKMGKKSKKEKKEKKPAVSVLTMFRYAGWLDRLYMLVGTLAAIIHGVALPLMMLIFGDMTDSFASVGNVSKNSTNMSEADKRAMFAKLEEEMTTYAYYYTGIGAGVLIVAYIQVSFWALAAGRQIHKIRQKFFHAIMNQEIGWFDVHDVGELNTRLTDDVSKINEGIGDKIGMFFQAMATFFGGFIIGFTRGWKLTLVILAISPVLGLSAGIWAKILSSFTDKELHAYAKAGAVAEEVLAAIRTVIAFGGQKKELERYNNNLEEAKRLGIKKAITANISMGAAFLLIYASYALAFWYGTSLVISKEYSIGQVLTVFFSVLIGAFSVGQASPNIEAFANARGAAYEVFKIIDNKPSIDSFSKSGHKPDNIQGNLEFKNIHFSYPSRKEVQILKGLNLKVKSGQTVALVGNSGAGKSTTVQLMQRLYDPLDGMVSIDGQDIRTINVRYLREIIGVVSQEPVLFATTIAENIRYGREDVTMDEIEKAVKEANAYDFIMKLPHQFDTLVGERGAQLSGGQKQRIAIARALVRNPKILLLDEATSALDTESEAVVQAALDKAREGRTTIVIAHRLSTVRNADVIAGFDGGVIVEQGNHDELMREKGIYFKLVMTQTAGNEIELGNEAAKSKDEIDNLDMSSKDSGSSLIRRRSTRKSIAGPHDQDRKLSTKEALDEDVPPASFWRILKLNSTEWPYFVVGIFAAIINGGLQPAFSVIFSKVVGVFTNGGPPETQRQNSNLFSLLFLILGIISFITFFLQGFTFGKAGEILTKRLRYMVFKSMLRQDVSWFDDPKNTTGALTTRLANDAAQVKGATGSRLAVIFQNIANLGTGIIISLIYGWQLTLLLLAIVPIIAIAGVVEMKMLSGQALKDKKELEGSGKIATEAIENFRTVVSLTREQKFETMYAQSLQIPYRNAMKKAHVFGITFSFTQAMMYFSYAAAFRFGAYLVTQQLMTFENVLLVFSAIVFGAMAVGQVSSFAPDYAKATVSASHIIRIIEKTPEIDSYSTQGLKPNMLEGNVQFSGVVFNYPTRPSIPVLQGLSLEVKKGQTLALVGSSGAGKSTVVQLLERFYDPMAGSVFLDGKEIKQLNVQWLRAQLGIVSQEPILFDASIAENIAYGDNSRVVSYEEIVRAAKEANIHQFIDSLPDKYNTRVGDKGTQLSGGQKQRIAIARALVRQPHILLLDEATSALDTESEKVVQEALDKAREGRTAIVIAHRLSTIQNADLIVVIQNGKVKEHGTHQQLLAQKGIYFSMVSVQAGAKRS
T3 sequence (P08183 whole entry): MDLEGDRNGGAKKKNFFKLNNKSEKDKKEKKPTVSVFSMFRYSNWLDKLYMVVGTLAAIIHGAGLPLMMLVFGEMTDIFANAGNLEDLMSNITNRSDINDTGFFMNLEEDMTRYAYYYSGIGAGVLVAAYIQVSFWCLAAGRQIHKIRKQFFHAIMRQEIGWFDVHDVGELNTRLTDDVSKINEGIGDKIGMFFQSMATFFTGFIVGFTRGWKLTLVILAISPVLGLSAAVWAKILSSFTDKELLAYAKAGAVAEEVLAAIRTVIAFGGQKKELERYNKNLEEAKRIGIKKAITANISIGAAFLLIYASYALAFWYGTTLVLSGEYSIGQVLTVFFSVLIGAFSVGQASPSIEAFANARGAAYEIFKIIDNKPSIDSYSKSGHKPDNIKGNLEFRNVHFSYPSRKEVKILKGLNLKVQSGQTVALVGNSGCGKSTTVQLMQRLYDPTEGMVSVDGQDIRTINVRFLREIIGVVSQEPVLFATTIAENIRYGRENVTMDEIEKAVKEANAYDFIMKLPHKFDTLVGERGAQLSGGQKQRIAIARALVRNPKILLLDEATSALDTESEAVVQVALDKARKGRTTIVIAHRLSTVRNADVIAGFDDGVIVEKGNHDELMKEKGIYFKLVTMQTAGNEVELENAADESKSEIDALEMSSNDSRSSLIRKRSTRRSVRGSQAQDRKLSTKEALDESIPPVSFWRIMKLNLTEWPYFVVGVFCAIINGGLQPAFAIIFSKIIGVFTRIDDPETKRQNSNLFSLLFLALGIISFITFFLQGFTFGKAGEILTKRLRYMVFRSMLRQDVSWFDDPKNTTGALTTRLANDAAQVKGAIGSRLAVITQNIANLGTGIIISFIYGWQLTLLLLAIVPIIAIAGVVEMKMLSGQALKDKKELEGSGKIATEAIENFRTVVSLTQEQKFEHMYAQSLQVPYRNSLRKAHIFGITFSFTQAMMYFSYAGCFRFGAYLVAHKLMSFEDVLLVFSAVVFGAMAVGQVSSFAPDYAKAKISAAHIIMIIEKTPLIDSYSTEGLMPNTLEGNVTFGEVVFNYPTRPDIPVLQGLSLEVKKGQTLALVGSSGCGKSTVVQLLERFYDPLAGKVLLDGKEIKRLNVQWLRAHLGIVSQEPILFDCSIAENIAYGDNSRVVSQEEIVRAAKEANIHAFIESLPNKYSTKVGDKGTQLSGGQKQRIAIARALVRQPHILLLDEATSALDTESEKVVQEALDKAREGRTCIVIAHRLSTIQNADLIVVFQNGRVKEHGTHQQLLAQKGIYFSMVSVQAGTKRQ
T1 sequence (P08183 whole entry): as above

Structure (SMILES) | Calcein accumulation in DU145TXR (in words) ([1]; listed as 541) | Effect on stimulated ATPase ([2]; listed as 541) | Effect on stimulated ATPase ([2]; listed as SMU29-541) | Stimulated ATPase [2] | Effect on basal ATPase ([2]; listed as 541) | Effect on basal ATPase ([2]; listed as SMU29-541) | Basal ATPase [2] | Effect on stimulated ATPase [3] | Stimulated ATPase [3] | Effect on basal ATPase [3] | Basal ATPase [3] | Calcein accumulation in DU145TXR (in words) [1] | Calcein accumulation in DU145TXR (in words) ([1]; listed as 278) | Effect on stimulated ATPase ([2]; listed as 278) | Effect on stimulated ATPase ([2]; listed as SMU29-278) | Effect on basal ATPase ([2]; listed as 278) | Effect on basal ATPase ([2]; listed as SMU29-278) | Effect on stimulated ATPase ([2]; listed as 280) | Effect on stimulated ATPase ([2]; listed as SMU29-280) | Effect on basal ATPase ([2]; listed as SMU29-280)
Cc1cc(C)c(-c2cc(NC(=O)CSc3nnc4c(n3)[nH]c3ccccc34)n(-c3ccccc3)n2)cc1C [29-541, 2-((5H-[1,2,4]triazino[5,6-b]indol-3-yl)thio)-N-(1-phenyl-3-(2,4,5-trimethylphenyl)-1H-pyrazol-5-yl)acetamide] | exceeded 29 significantly; also recorded: exceeded 29 upon preincubation | inhibited activity similar to parental compound 29; also recorded: inhibited verapamil-stimulated ATPase activity | inhibitor | 68 ± 7 % of DMSO | did not significantly affect; also recorded: did not activate | none | 101 ± 12 % of DMSO | inhibitor | 66 ± 6 % of DMSO | none | 87 ± 9 % of DMSO |  |  |  |  |  |  |  |  | 
Cc1cc(C)c(-c2cc(NC(=O)CSCC(=O)NC34CC5CC(CC(C5)C3)C4)n(-c3ccccc3)n2)cc1C [29-278, 2-({[(adamantan-1-yl)carbamoyl]methyl}sulfanyl)-N-[1-phenyl-3-(2,4,5-trimethylphenyl)-1H-pyrazol-5-yl]acetamide] |  |  |  | 41 ± 7 % of DMSO |  |  | 78 ± 4 % of DMSO | inhibitor | 63 ± 6 % of DMSO | inhibitor | 74 ± 6 % of DMSO | increased calcein accumulation | comparable to 29 | inhibited verapamil-stimulated ATPase activity | inhibitor | inhibited | inhibitor |  |  | 
Cc1cc(C)c(-c2cc(NC(=O)CSCC(=O)NC(c3ccccc3)c3ccccc3)n(-c3ccccc3)n2)cc1C [29-280, N-(diphenylmethyl)-2-[({[1-phenyl-3-(2,4,5-trimethylphenyl)-1H-pyrazol-5-yl]carbamoyl)methyl}sulfanyl]acetamide] |  |  |  | 116 ± 4 % of DMSO |  |  | 148 ± 4 % of DMSO | inhibitor | 54 ± 7 % of DMSO | inhibitor | 76 ± 8 % of DMSO | comparable to 29 |  |  |  |  |  | only a slight stimulation | stimulator | stimulator
